How the values were obtained:
Type in all cases: cell-based
Normal WI38 cells = experiment: Cell viability of normal WI38 cells at 72 h (LD50); conditions: for LD50 (normal): normal WI38 cells, Table 1; for CC50: Homo sapiens, WI-38, 72 h, read-out: LD50 non-senescent cells (NSC)
Experimental: (§1) Normal WI38 cells (FIG. 1A), IR-induced senescent cells (FIG. 1B) and replicative senescent cells (FIG. 1C) were incubated with increasing concentrations of PL. At 72 hours post-treatment cell viability was measured. […] IR-induced senescent WI38 cells were treated with 10 μM PL and viable cells were measured at 0, 1, 2, 3, 6, 12, 16, 24, 48 and 72 hours after treatment (FIG. 1D) or the cells were incubated with 10 μM PL for 1, 3, 6, 12, 24, 48 or 72 hours and cell viability was measured at 72 h (FIG. 1E).
(§2) At 72 hours post-treatment cell viability was measured.
(§3) Normal WI38 cells and IR-induced senescent cells were incubated with increasing concentrations of compounds of Formula I and Formula II. At 72 hours post-treatment cell viability was measured and LD50 was calculated.

[1] = system: IR-induced senescent WI38 cells; experiment: Cell viability of IR-induced senescent WI38 cells at 72 h (LD50); conditions: for LD50 (IR-senescent): IR-induced senescent WI38 cells; for LD50 (IR-senescent) / Ratio (normal/senescent): Table 1; for Ratio (normal/senescent) / Ratio (NSC/SC): ratio of LD50 values; for IC50: Homo sapiens, WI-38, 72 h, read-out: LD50 IR-senescent cells (SC); for Ratio (NSC/SC): Table 2
Experimental: as §1, §2, §3

[2] = system: replicative senescent WI38 cells; experiment: Cell viability of replicative senescent WI38 cells at 72 h (LD50)
Experimental: as §1

[3] = system: IR-induced senescent WI38 cells; experiment: Reactive oxygen species (ROS) measurement after PL treatment; conditions: 10 μM PL, at 24 hours
Experimental: PL selectively increases ROS in senescent WI38 in a time-dependent manner. Normal (FIG. 2A) and IR-induced senescent WI38 cells (FIG. 2B) were incubated with vehicle (Veh), […] H2O2 for 30 min as a positive control, or 10 μM PL. Reactive oxygen species (ROS) was measured at various times (1, 3, 6, 12, 24 hours) after PL treatment and expressed as percent of control. Data are presented as mean±SE of three independent assays.

In the case of `CC(=O)OC[C@H]1O[C@@H]([S-])[C@H](OC(C)=O)[C@@H](OC(C)=O)[C@@H]1OC(C)=O.CCP(CC)CC.[Au+]` [Auranofin, reference compound], the “LD50 (normal)” value (Normal WI38 cells) is reported as 5.13 µM, the “LD50 (IR-senescent)” value [1] is reported as 5.34 µM and the “Ratio (normal/senescent)” value [1] is reported as 1.0.
With `CCCCS(=N)(=O)CCC(N)C(=O)O` (stereo not drawn) [Buthionine sulfoximine, reference compound] the “LD50 (normal)” value (Normal WI38 cells) was 2340.19 µM, the “LD50 (IR-senescent)” value [1] was 2391.51 µM and the “Ratio (normal/senescent)” value [1] was 1.0.
For `CCCCCCCCCC[P+](c1ccccc1)(c1ccccc1)c1ccccc1` [Decyl-triphenylphosphonium, reference compound], the “LD50 (normal)” value (Normal WI38 cells) was 1.41 µM, the “LD50 (IR-senescent)” value [1] was 0.98 µM and the “Ratio (normal/senescent)” value [1] was 1.4.
For `CCCOc1c(OC)cc(/C=C/C(=O)N2CCC=CC2=O)cc1OC` [GZ-11719-by], the CC50 (Normal WI38 cells) was 84.7 µM, the IC50 [1] was 47.1 µM and the “Ratio (NSC/SC)” value [1] was 1.80.
In the case of `COc1cc(/C=C/C(=O)N2CCC=CC2=O)cc(OC)c1OCCN(C)CCOc1c(OC)cc(/C=C/C(=O)N2CCC=CC2=O)cc1OC` [GZ-11719], the CC50 (Normal WI38 cells) is reported as 1.62 µM, the IC50 [1] is reported as 0.9 µM and the “Ratio (NSC/SC)” value [1] is reported as 1.80.
For `COc1cc(/C=C(\Br)C(=O)N2CCC=CC2=O)c(Br)c(OC)c1OC` [GZ-11734], the CC50 (Normal WI38 cells) was 7.16 µM, the IC50 [1] was 1.39 µM and the “Ratio (NSC/SC)” value [1] was 5.14.
For `CC(=O)N[C@@H](CS)C(=O)O` [NAC, N-Acetyl-Cysteine, reference compound], the “effect on PL induced cell death” value ([1]; pre-treatment 2 hours (NAC 1 mM; Q-VD-OPh 20 μM), then 10 μM PL 72 h) was “selectively inhibited PL induced cell death”.
With `COc1cc(/C=C/C(=O)N2CCC=CC2=O)cc(OC)c1OC` [PL, 5,6-dihydro-1-[(2E)-1-oxo-3-(3,4,5-trimethoxyphenyl)-2-propenyl]-2(1H)-pyridinone, reference compound] the “effect on cell viability” value (Normal WI38 cells; PL up to 10 μM, 72 hours) was “no significant effect”, the “LD50 (normal)” value (Normal WI38 cells) was 24.25 µM and the “viable cells over time” value ([1]; 10 μM PL, from 6 hours on, both treatment scenarios) was “significant reduction in viable cells”. The “LD50 (IR-senescent)” value [1] was 7.05 µM, the “effect on number of viable cells” value ([1]; PL as low as 5 μM, 72 hours) was “significantly reduced the number of viable cells” and the “Ratio (normal/senescent)” value [1] was 3.44-3.82. For the same compound, the “effect on number of viable cells” value ([2]; PL as low as 5 μM, 72 hours) was “significantly reduced the number of viable cells”, the “LD50 (Replicative)” value ([2]; replicative senescent WI38 cells, Table 1) was 6.35 µM and the ROS production [3] was “significantly increased ROS production”.
`COc1cc(/C=C/C(=O)N2CCCCCC2=O)cc(OC)c1OC` [XL-11178A] was tested, and the CC50 (Normal WI38 cells) was > 40 µM and the IC50 [1] was > 40 µM.
With `COc1cc(/C=C/C(=O)N2CCC=CC2=O)cc(OC)c1OCCN(C)C` [XL-11194] the CC50 (Normal WI38 cells) was 10.3 µM, the IC50 [1] was 4.02 µM and the “Ratio (NSC/SC)” value [1] was 2.56.
`O=C(C#Cc1ccccc1)N1CCC=CC1=O` [XZ 12040] was tested, and the CC50 (Normal WI38 cells) was 5.78 µM, the IC50 [1] was 2.4 µM and the “Ratio (NSC/SC)” value [1] was 2.41.
In the case of `COc1cc(C#CC(=O)N2CCC=CC2=O)cc(OC)c1OC` [XZ-12045], the CC50 (Normal WI38 cells) is reported as 13.9 µM, the IC50 [1] is reported as 4.38 µM and the “Ratio (NSC/SC)” value [1] is reported as 3.18.
In the case of `O=C1C=CCCN1C(=O)/C=C/c1ccccc1C(F)(F)F` [XZ-12047], the CC50 (Normal WI38 cells) is reported as 21.9 µM, the IC50 [1] is reported as 10.8 µM and the “Ratio (NSC/SC)” value [1] is reported as 2.03.
For `COc1cc(/C=C(\C#N)C(=O)N2CCC=CC2=O)cc(OC)c1OC` [XZ-12052], the CC50 (Normal WI38 cells) was 80 µM, the IC50 [1] was 41 µM and the “Ratio (NSC/SC)” value [1] was 1.95.
In the case of `C=C1CCCN(S(=O)(=O)/C=C/c2ccccc2)C1=O` [XZ-12107], the CC50 (Normal WI38 cells) is reported as 24 µM, the IC50 [1] is reported as 4.77 µM and the “Ratio (NSC/SC)” value [1] is reported as 5.02.

From patent publication US10758524B2, “Compositions and methods for selectively depleting senescent cells” (BioVentures, LLC, priority 2014, dated 2020)
